Laboratory results published in the NIST ThermoML archive (doi:10.1016/j.fluid.2015.05.026).
Where “and” joins values, the source holds several entries; their conditions need not be identical. Equal values may be shown once.

What was measured:
[1] = Liquid, Closed cell (Static) method
[2] = molar heat capacity at constant pressure; details: 101.33 kPa, Liquid, Large sample (1 g) DSC

C=CC(O)CCC (configuration not stated) [1-hexen-3-ol]
Details | molar heat capacity at constant pressure [J/K/mol] | vapor or sublimation pressure
[1], 238.2 K | – | 0.001239 kPa and 0.001245 kPa and 0.001252 kPa
[1], 243.15 K | – | 0.002307 kPa and 0.002309 kPa and 0.00231 kPa
[1], 248.15 K | – | 0.004181 kPa
[1], 248.2 K | – | 0.004188 kPa and 0.004193 kPa
[1], 253.15 K | – | 0.007373 kPa and 0.007376 kPa
[1], 258.15 K | – | 0.01269 kPa and 0.0127 kPa and 0.01271 kPa
[1], 263.15 K | – | 0.0214 kPa and 0.02141 kPa
[1], 268.15 K | – | 0.03517 kPa and 0.03518 kPa
[1], 273.15 K | – | 0.05668 kPa and 0.05669 kPa and 0.05671 kPa
[1], 278.15 K | – | 0.08933 kPa and 0.08939 kPa
[1], 283.15 K | – | 0.1383 kPa and 0.1384 kPa
[1], 288.15 K | – | 0.2097 kPa and 0.2098 kPa
[1], 293.15 K | – | 0.3122 kPa and 0.3123 kPa
[1], 298.15 K | – | 0.4574 kPa and 0.4576 kPa
[1], 303.15 K | – | 0.6587 kPa and 0.6589 kPa
[1], 308.15 K | – | 0.9353 kPa and 0.9355 kPa
[2], 265 K | 235.9 | –
[2], 270 K | 241 | –
[2], 275 K | 246 | –
[2], 280 K | 250.8 | –
[2], 285 K | 255.5 | –
[2], 290 K | 260.1 | –
[2], 295 K | 264.8 | –
[2], 300 K | 269.3 | –
[2], 305 K | 273.6 | –
[2], 310 K | 277.6 | –
[2], 315 K | 281.6 | –
[2], 320 K | 285.4 | –
[2], 325 K | 289.1 | –
[2], 330 K | 292.5 | –
[2], 335 K | 295.4 | –
[2], 340 K | 298.2 | –
[2], 345 K | 301.2 | –
[2], 350 K | 303.8 | –
[2], 354.7 K | 305.5 | –

CCC/C=C/CO [(E)-2-hexen-1-ol]
Details | molar heat capacity at constant pressure [J/K/mol] | vapor or sublimation pressure
[1], 238.15 K | – | 0.000207 kPa and 0.00021 kPa and 0.000211 kPa
[1], 243.15 K | – | 0.000404 kPa and 0.000406 kPa and 0.000407 kPa
[1], 248.15 K | – | 0.000768 kPa and 0.000772 kPa
[1], 253.15 K | – | 0.001399 kPa and 0.001397 kPa
[1], 258.15 K | – | 0.002485 kPa and 0.002492 kPa and 0.002493 kPa
[1], 263.15 K | – | 0.004314 kPa and 0.004317 kPa and 0.004318 kPa
[1], 268.15 K | – | 0.007304 kPa and 0.00731 kPa and 0.007315 kPa
[1], 273.15 K | – | 0.01214 kPa
[1], 273.65 K | – | 0.01275 kPa and 0.01276 kPa
[1], 278.15 K | – | 0.01974 kPa and 0.01975 kPa
[1], 283.15 K | – | 0.03147 kPa and 0.03148 kPa
[1], 288.15 K | – | 0.04923 kPa and 0.04926 kPa and 0.04927 kPa
[1], 293.15 K | – | 0.07568 kPa and 0.07569 kPa
[1], 298.15 K | – | 0.1143 kPa
[1], 303.15 K | – | 0.1699 kPa
[1], 308.15 K | – | 0.2483 kPa and 0.2484 kPa
[2], 265 K | 211.9 | –
[2], 270 K | 215.1 | –
[2], 275 K | 218.4 | –
[2], 280 K | 221.9 | –
[2], 285 K | 225.4 | –
[2], 290 K | 229.2 | –
[2], 295 K | 233.3 | –
[2], 300 K | 237.2 | –
[2], 305 K | 241.3 | –
[2], 310 K | 245.3 | –
[2], 315 K | 249.5 | –
[2], 320 K | 253.6 | –
[2], 325 K | 257.8 | –
[2], 330 K | 261.9 | –
[2], 335 K | 265.6 | –
[2], 340 K | 269.5 | –
[2], 345 K | 273.3 | –
[2], 350 K | 276.9 | –
[2], 355 K | 280.1 | –

CC/C=C\CCO [(Z)-3-hexen-1-ol]
Details | molar heat capacity at constant pressure [J/K/mol] | vapor or sublimation pressure
[1], 238.15 K | – | 0.000301 kPa and 0.000303 kPa and 0.000304 kPa
[1], 243.15 K | – | 0.000577 kPa and 0.000579 kPa and 0.00058 kPa
[1], 248.15 K | – | 0.001062 kPa and 0.001066 kPa and 0.001069 kPa
[1], 253.15 K | – | 0.001923 kPa and 0.001926 kPa and 0.001921 kPa
[1], 258.15 K | – | 0.003383 kPa and 0.003393 kPa and 0.003395 kPa
[1], 263.15 K | – | 0.005802 kPa and 0.005803 kPa and 0.005805 kPa
[1], 268.15 K | – | 0.009727 kPa and 0.009728 kPa and 0.009737 kPa
[1], 273.65 K | – | 0.01674 kPa
[1], 278.15 K | – | 0.02561 kPa and 0.02562 kPa and 0.02563 kPa
[1], 283.15 K | – | 0.04036 kPa and 0.04037 kPa
[1], 288.15 K | – | 0.06241 kPa and 0.06244 kPa
[1], 293.15 K | – | 0.09491 kPa and 0.09494 kPa and 0.09496 kPa
[1], 298.15 K | – | 0.142 kPa
[1], 303.15 K | – | 0.2089 kPa and 0.209 kPa
[1], 308.15 K | – | 0.3032 kPa and 0.3034 kPa
[2], 265 K | 206.7 | –
[2], 270 K | 210.2 | –
[2], 275 K | 213.9 | –
[2], 280 K | 217.6 | –
[2], 285 K | 221.4 | –
[2], 290 K | 225.4 | –
[2], 295 K | 229.7 | –
[2], 300 K | 234 | –
[2], 305 K | 238.2 | –
[2], 310 K | 242.4 | –
[2], 315 K | 246.7 | –
[2], 320 K | 250.9 | –
[2], 325 K | 255.2 | –
[2], 330 K | 259.2 | –
[2], 335 K | 263.1 | –
[2], 340 K | 266.8 | –
[2], 345 K | 270.8 | –
[2], 350 K | 274.6 | –
[2], 355 K | 277.8 | –

CCCCCCO [hexan-1-ol]
[1]
Details | vapor or sublimation pressure
237.95 K | 0.000143 kPa
238 K | 0.000143 kPa and 0.000145 kPa
243.2 K | 0.000296 kPa
243.25 K | 0.000293 kPa
248.2 K | 0.000569 kPa and 0.00056 kPa and 0.000564 kPa
253.15 K | 0.001054 kPa and 0.001051 kPa and 0.001057 kPa
258.15 K | 0.001918 kPa and 0.001915 kPa and 0.00192 kPa
263.15 K | 0.003393 kPa and 0.003385 kPa
268.15 K | 0.005838 kPa and 0.005843 kPa and 0.005839 kPa
273.15 K | 0.009866 kPa and 0.009857 kPa
273.65 K | 0.01039 kPa
278.15 K | 0.01629 kPa and 0.0163 kPa
283.15 K | 0.02639 kPa and 0.02642 kPa
288.15 K | 0.04189 kPa and 0.0419 kPa
293.15 K | 0.06536 kPa and 0.06537 kPa
298.15 K | 0.1001 kPa
303.15 K | 0.1505 kPa
308.15 K | 0.223 kPa and 0.223 kPa and 0.2231 kPa
